Entries after “also recorded” stand apart in the source; their conditions may differ. Where two headings read alike, the source gives them in different places.
How the values were obtained:
[1] = system: H460 cells; test: MTT cytotoxicity assay, H460 cells transfected with α-enolase siRNA; assay type: cell-based, human
Experimental: To establish the effectiveness of α-enolase silencing on other cancer cell types, H460 non-small cell lung cancer cells were challenged with a chemotherapeutic drug, MTT cytotoxicity assays were carried out and survival curves plotted as shown in FIG. 17.

[2] = system: A549 cells; test: MTT cytotoxicity assay, A549 cells transfected with α-enolase siRNA
Experimental: Small interfering RNA transfected cells were seeded in triplicate into 96-well plates at 5×10^3 cells/well 48 hrs post-transfection. The cells were incubated for an additional 16-24 hrs before they were exposed to increasing concentrations of cytotoxic drugs. […] Appropriate dilutions were made in the respective media for each cell line. Following addition of drugs, incubation was continued for an additional 72 hrs. Twenty-five ml of MTT dye (5 mg/ml) were added into each well and the plate was further incubated at 37° C. for 4 hrs. The dye was solubilized with 10% Triton X-100, 0.01 N HCl and further incubated at 37° C. in the dark for 30 min. Cell viability was determined by measure of absorption at 570 nm in a Wallac multiwell plate reader (PerkinElmer, Inc., Boston, Mass.). The averages of triplicate wells were plotted using the Prism software (GraphPad Software, Inc., San Diego, Calif.).
To investigate if α-enolase is broadly involved in mediating drug resistance to microtubule targeting agents, non-small cell lung cancer cell lines A549 and H460, respectively, were transfected with α-enolase siRNA and enolase expression and viability were assessed.

[3] = system: MCF-7 cells; test: MTT cytotoxicity assay, MCF-7 cells transfected with α-enolase siRNA; assay type: cell-based, human
Experimental: For a typical siRNA transfection, 1 nmole of the annealed siRNA duplex was mixed with 1.4 ml of Opti-MEM reagent (Invitrogen). In another tube, […] of Oligofectamine reagent (Invitrogen, Carlsbad, Calif.) is mixed with […] of Opti-MEM. The two solutions are combined and mixed gently by inversion and incubated for 20 min. at RT. The resulting solution is added to the cultured cells drop by drop in a 10 cm dish (cells are approximately 40-50% confluent). The next day the transfected cells were trypsinized and seeded in 6 or 96-well plates and further incubated for the indicated amount of time (assay dependent) before further analysis.
To evaluate the effect of α-enolase depletion on the chemosensitivity of cells to cytotoxic agents, MTT assays were performed in breast adenocarcinoma MCF-7 cells transfected with α-enolase specific siRNAs. […] The predicted EC50 values (the effective dose of a compound responsible for a positive effect half-way between baseline and maximum net impact) for the α-enolase-depleted cells are shown in Table 3. Similarly, results using other chemotherapeutic drugs are also shown in the table indicating the sensitivity of breast cancer tissue to α-enolase depletion.

[4] = system: MDA-435 cells; test: cells; assay type: cell-based, human; conditions: MDA-435 cells; for EC50: Homo sapiens, MDA435
Experimental: Similar tests utilizing α-enolase siRNA were performed on MDA-435 breast adenocarcinoma cells. Chemosensitivity to various drugs was determined for the MDA-435 cells as described above.

[5] = system: PC-3 cells; test: MTT cytotoxicity assay, PC-3 cells transfected with α-enolase siRNA; assay type: cell-based; conditions: for EC50: Homo sapiens
[6] = system: CaOV3 cells; test: MTT cytotoxicity assay, CaOV3 cells transfected with α-enolase RNAi; assay type: cell-based, human; conditions: for EC50: Homo sapiens, 72 hours post transfection
From the text: These observations were expanded by targeting α-enolase in the ovarian cancer cell line, CaOV3.

[7] = system: SKOV3 cells; test: Cytotoxicity in α-enolase siRNA transfected SKOV3 cells; conditions: data not shown
[8] = system: SW-480 cells; test: cells; assay type: cell-based, human; conditions: SW-480 cells; for EC50: Homo sapiens, SW480
Experimental: The colorectal adenocarcinoma cell line SW-480 was treated with α-enolase-directed siRNA using the procedures described above.

[9] = system: A549 cells; test: Clonogenic assay, A549 cells; assay type: cell-based, human; conditions: A549 cells vs control vectors
[10] = system: α-enolase; test: Western blot of α-enolase protein expression after siRNA transfection; assay type: cell-based, human; conditions: MCF-7 cells
Experimental: Western blot analysis utilizing anti-α-enolase antibodies was performed on MOLT4 cell extracts fractionated on SDS-PAGE (FIG. 3). Cells extract were prepared according to the protocol detailed in Example 1. […] Resolved proteins were electrophoretically transferred onto nitrocellulose membranes (Hybond, Amercham Pharmacia Biotech) for 1 hour. […] After blocking the membranes with 5% non-fat milk in 1×PBS overnight at 4° C., all antibody-binding reactions were performed in 5% non-fat milk in 1×PBS for 2 hours at room temperature for primary antibodies and for 1 hour for secondary antibodies coupled to HRP. The signal was detected by the Supersignal west Pico chemiluminescent substrate (Pierce, Rockford, Ill., USA). Two polyclonal antibodies against α-enolase were used: a goat antibody against human α-enolase (Santa Cruz Biotechology, Inc., Santa Cruz, Calif.); rabbit polyclonal antibody against human α-enolase (NNE) (MorphoSys AG, Munich, Del.). Membranes were subsequently blotted with anti-GAPDH (Novus Biologicals, Inc., Littleton, Colo.) or anti-prohibitin mouse monoclonal antibody (Lab Vision Corp., Fremont, Calif.) as controls for protein loading. To establish the importance of α-enolase to the expression of the drug-resistant phenotype in cell lines, α-enolase expression was silenced using RNAi. Briefly, the following siRNA duplexes targeting the human α-enolase mRNA were designed and purchased either from Ambion (Austin, Tex.) or Invitrogen (Carlsbad, Calif.). […] [NT] ID NO: 2) targeting the mRNA sequence corresponding to nucleotides […] from the start of the transcript (Ref Seq ID number: NM-001428). […] In another tube, […] of Oligofectamine reagent (Invitrogen, Carlsbad, Calif.) is mixed with […] of Opti-MEM. The two solutions are combined and mixed gently by inversion and incubated for 20 min. at RT. […] The next day the transfected cells were trypsinized and seeded in 6 or 96-well plates and further incubated for the indicated amount of time (assay dependent) before further analysis.

[11] = control, read-out: Control (EC50)
[12] = α-enolase specific siRNA, read-out: α-Enolase (EC50)
[13] = Homo sapiens, NCI-H460, control, read-out: Control (EC50)
[14] = Homo sapiens, NCI-H460, α-enolase specific siRNA, read-out: α-Enolase (EC50)
[15] = Homo sapiens, A549, read-out: Control (EC50)
[16] = Homo sapiens, A549, read-out: α-Enolase (EC50)
[17] = Homo sapiens, MCF7, MCF-7 cells, control siRNA, 72 hrs drug, read-out: Control (EC50)
[18] = Homo sapiens, MCF7, MCF-7 cells, α-enolase specific siRNA, read-out: α-Enolase (EC50)
[19] = Eno-1 siRNA, read-out: Eno-1 (EC50)
[20] = Eno-1 stealth siRNA, read-out: Eno-1 ST (EC50)
[21] = control siRNA, read-out: Control (EC50)
[22] = mock transfection, read-out: Mock (EC50)
[23] = Caov-3, control, read-out: Control (EC50)
[24] = Caov-3, α-enolase specific RNAi, read-out: α-Enolase (EC50)

EC50 [4, 19] [nM] | EC50 [4, 20] [nM] | EC50 [4, 21] [nM] | Molecule | viability of α-enolase-silenced cells under drug treatment vs control cells [1] | EC50 [1, 13] [nM] | EC50 [1, 14] [nM] | chemosensitivity of α-enolase-silenced cells (words) ([2]; A549 cells) | EC50 [2, 15] [nM] | EC50 [2, 16] [nM] | EC50 [3, 17] [nM] | EC50 [3, 18] [nM] | EC50 [4, 22] [nM] | EC50 [5, 11] [nM] | EC50 [5, 12] [nM] | further results
 |  |  | N.N.[Cl][Pt][Cl] [Cisplatinum] | decreased the viability |  |  |  |  |  |  |  |  |  |  | EC50 [1, 11]: 44.4 nM; EC50 [1, 12]: 24 nM; EC50 ([2]; read-out: Control (EC50), A549 cells, control siRNA): 327000 nM; EC50 ([2]; read-out: α-Enolase (EC50), A549 cells, α-enolase specific siRNA): 218000 nM; EC50 ([3]; MCF-7 cells, control siRNA, 72 hrs drug, read-out: Control (EC50)): 118000 nM; EC50 ([3]; MCF-7 cells, α-enolase specific siRNA, read-out: α-Enolase (EC50)): 92000 nM
0.182 | 0.124 | 0.645 | CC(=O)O[C@@]12CO[C@@H]1C[C@H](O)[C@@]1(C)C(=O)[C@H](O)C3=C(C)[C@@H](OC(=O)[C@H](O)[C@@H](NC(=O)OC(C)(C)C)c4ccccc4)C[C@@](O)([C@@H](OC(=O)c4ccccc4)[C@H]21)C3(C)C [Docetaxel] | decreased the viability | 1.36 | 0.663 | enhanced chemosensitivity; also recorded: significant shifts in their chemosensitivities | 7.01 | 0.351 | 73.5 | 36.5 | 0.226 | 0.348 | 0.0547 | sensitivity of α-enolase-silenced cells [4]: Increases in sensitivity
 |  |  | COc1cccc2c1C(=O)c1c(O)c3c(c(O)c1C2=O)C[C@@](O)(C(=O)CO)C[C@@H]3O[C@H]1C[C@H](N)[C@H](O)[C@H](C)O1 [Doxorubicin] | greatest decreases in viability | 119 | 30 |  | 289 | 297 | 90600 | 62600 |  |  |  | 
 |  |  | COc1cc([C@@H]2c3cc4c(cc3[C@@H](O[C@@H]3O[C@@H]5CO[C@@H](C)O[C@H]5[C@H](O)[C@H]3O)[C@H]3COC(=O)[C@H]23)OCO4)cc(OC)c1O [Etoposide] | decreased the viability | 5370 | 1910 | increased sensitivity | 20500 | 10100 | 16100 | 27000 |  |  |  | 
 |  |  | N[C@@H](Cc1ccc(N(CCCl)CCCl)cc1)C(=O)O [Melphalan] |  |  |  |  |  |  |  |  |  |  |  | EC50 ([3]; Homo sapiens, MCF7, 72 h, read-out: Control (EC50)): 14700 nM; EC50 ([3]; Homo sapiens, MCF7, read-out: α-Enolase (EC50)): 11500 nM
 |  |  | O=C1c2c(O)ccc(O)c2C(=O)c2c(NCCNCCO)ccc(NCCNCCO)c21 [Mitoxantrone] | decreased the viability | 224 | 70.8 | increased sensitivity | 136 | 88.8 | 8680 | 7820 |  |  |  | 
0.872 | 0.917 | 0.709 | CC[C@]1(O)C[C@@H]2CN(CCc3c([nH]c4ccccc34)[C@@](C(=O)OC)(c3cc4c(cc3OC)N(C)[C@H]3[C@@](O)(C(=O)OC)[C@H](OC(C)=O)[C@]5(CC)C=CCN6CC[C@]43[C@@H]65)C2)C1 [Vinblastin] | decreased the viability | 3.09 | 1.54 | enhanced chemosensitivity | 2.39 | 0.076 |  |  | 1.04 | 0.0529 | 0.00553 | chemosensitivity of α-enolase-silenced cells (words) ([2]; A549 cells, listed as vinblastine): significant shifts in their chemosensitivities; combination with enolase siRNA in cell killing ([5]; listed as vinblastine): synergistic; also recorded: augment PC-3 cell killing; decrease of chemotherapeutic drug resistance by α-enolase-directed siRNA vs mock siRNA [6]: 8 fold; EC50 [6, 23]: 0.022 nM; EC50 [6, 24]: 0.00349 nM
0.375 | 0.324 | 0.246 | CC[C@]1(O)C[C@H]2CN(CCc3c([nH]c4ccccc34)[C@@](C(=O)OC)(c3cc4c(cc3OC)N(C=O)[C@H]3[C@@](O)(C(=O)OC)[C@H](OC(C)=O)[C@]5(CC)C=CCN6CC[C@]43[C@@H]65)C2)C1 [Vincristine] | decreased the viability | 4.96 | 2.03 |  | 83.3 | 20 | 163000 | 12600 | 0.667 | 3400 | 1690 | cytotoxic effect in α-enolase-depleted cells [7]: enhanced cytotoxic effect; chemosensitivity of α-enolase-silenced cells (words) ([2]; A549 cells, listed as vincristin): significant shifts in their chemosensitivities; chemosensitivity of α-enolase-silenced cells (words) ([2]; A549 cells, listed as vincristine): enhanced chemosensitivity; EC50 [8, 11]: 45.8 nM; EC50 [8, 12]: 0.221 nM; more sensitive, enolase-depleted vs mock transfected cells [8]: approximately 210 times; chemosensitivity of α-enolase-depleted cells (words) ([8]; listed as vincristin): greater chemosensitivity; chemosensitivity of α-enolase-depleted cells (words) ([8]; listed as vincristine): greatly enhanced chemosensitivity; IC50 ([3]; Homo sapiens, MCF7, MCF-7 cells, from MTT experiments): 0.25 nM; sensitivity of α-enolase silenced cells ([3]; MCF-7 cells): substantial increase in their sensitivity; IC10 ([3]; MCF-7 cells, from MTT experiments): 0.005 nM; EC50 lower in α-enolase-depleted cells vs control siRNA treated cells ([3]; MCF-7 cells, on average): 12 fold; sensitivity of α-enolase siRNA cells in clonogenic assay [9]: more sensitive; decrease of chemotherapeutic drug resistance by α-enolase-directed siRNA vs mock siRNA [6]: 6 fold; EC50 [6, 23]: 0.084 nM; EC50 [6, 24]: 0.0108 nM
 |  |  | VEGF-directed siRNA: chemically modified Stealth siRNA duplex targeting VEGF, SEQ ID NO: 8 and 9 (chain 1 ACAAAUGUGAAUGCAGACCAAAGAA; chain 2 UUCUUUGGUCUGCAUUCACAUUUGU; chemically modified Stealth duplex, pattern not given here) |  |  |  |  |  |  |  |  |  |  |  | decrease of α-enolase expression [10]: ~100%
